# Measurements reported in PMC3257251, “A Whole Cell Assay to Measure Caspase-6 Activity by Detecting Cleavage of Lamin A/C” (PLoS ONE, 2012).
# Where two headings read alike, the source gives them in different places. Peptide text beside a SMILES is read from it. * marks the point of attachment. Cbz = O=C(OCc1ccccc1)*; CH2F = FC*
# Assays:
# [1] = biological target: T1, Caspase-7 (Homo sapiens, UniProt P55210); experiment: Enzymatic caspase activity assay, (Ac-DEVD)2-Rh110 substrate; conditions: read-out: Mean IC50 Caspase-7; apparent IC50; 15 minute preincubation and 40 minute reaction; 5 pM caspase-7, 1 µM (Ac-DEVD)2-Rh110
# T1 sequence (P55210 24-198 limits assumed): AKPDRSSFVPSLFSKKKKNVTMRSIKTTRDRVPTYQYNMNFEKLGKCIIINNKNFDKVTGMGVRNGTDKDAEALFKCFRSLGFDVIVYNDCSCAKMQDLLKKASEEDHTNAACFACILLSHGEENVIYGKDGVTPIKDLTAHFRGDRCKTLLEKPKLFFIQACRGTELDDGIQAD
# T1 sequence (P55210 207-303 limits assumed): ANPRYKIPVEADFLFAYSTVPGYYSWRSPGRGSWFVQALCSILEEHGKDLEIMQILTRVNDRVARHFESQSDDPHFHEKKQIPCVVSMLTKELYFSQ
# Description: (§1) All peptide inhibitors were serially diluted in DMSO prior to cross dilution in assay buffer (50 mM HEPES pH 7.2, 25 mM MgSO4, 0.5 mM EGTA, 5 mM Glutathione, 0.01% Triton X-100 containing 0.1% Bovine Gamma Globulin (BGG)). […] Rhodamine-labeled bivalent tetrapeptide substrates were obtained from Anaspec (Fremont, CA) and used as follows: 300 pM caspase-3 reacted with 1 µM (Ac-DEVD)2 -Rh110, 1 nM caspase-6 reacted with 5 µM (Ac-VEID)2 -Rh110, 5 pM caspase-7 reacted with 1 µM (Ac-DEVD)2 -Rh110. Enzyme and inhibitor were preincubated for 15 minutes prior to the addition of substrate to initiate the enzymatic reaction.
# [2] = biological target: T2, Caspase-6 (Homo sapiens, UniProt P55212); experiment: Enzymatic caspase activity assay, (Ac-VEID)2-Rh110 substrate; conditions: 15 minute enzyme/inhibitor preincubation and 40 minute enzyme reaction
# T2 sequence (P55212 24-179 limits assumed): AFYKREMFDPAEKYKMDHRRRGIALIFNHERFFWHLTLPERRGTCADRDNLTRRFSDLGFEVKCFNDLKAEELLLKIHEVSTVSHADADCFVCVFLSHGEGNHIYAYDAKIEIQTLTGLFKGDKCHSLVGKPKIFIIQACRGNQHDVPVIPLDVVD
# T2 sequence (P55212 194-293 limits assumed): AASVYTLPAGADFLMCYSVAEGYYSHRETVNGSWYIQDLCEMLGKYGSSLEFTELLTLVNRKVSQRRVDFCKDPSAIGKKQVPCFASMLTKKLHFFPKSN
# Description: as §1
# [3] = system: VEIDase activity in SKNAS cells; experiment: Caspase-Glo 6 assay (lysate based); type: cell-based, human; conditions: 3 µM staurosporine for 6 hours, lysate based readout, read-out: IC50 for inhibition of VEIDase activity, Caspase-Glo 6 assay
# Description: SKNAS cells were plated at a density of 20,000 cells per well into 384-well black clear-bottom cell culture plates in 20 µl/well growth medium and allowed to adhere overnight. The following day, 5 µl of peptide inhibitor diluted in growth medium was delivered to each well 30 minutes prior to addition of 5 µl/well staurosporine in growth medium. The final DMSO concentration in the assay was 0.1% and the final staurosporine concentration was 3 µM. Following 6 hours incubation at 37°C, Caspase-Glo® 6 reagents (Promega; Madison, WI) were prepared according to manufacturer's recommendation, and 30 µl was added directly to each well, followed by 1 hour incubation at 37°C and luminescence recording using a Perkin Elmer Envision.
# [4] = biological target: T3, caspase-6 cleavage of lamin A/C in SKNAS cells (Homo sapiens, UniProt P55212); experiment: Cell-based ELISA for cleaved lamin A/C (cellular lamin cleavage assay); conditions: for IC50: inhibitor 30 min before 3 µM staurosporine for 6 hours, small lamin A/C cleavage product; for activity in the cellular lamin degradation assay: inhibitor concentrations up to 100 µM, 3 µM staurosporine for 6 hours; for fold lower potency in cellular lamin assay than in enzymatic assay: cellular lamin cleavage IC50 versus enzymatic caspase-6 IC50
# T3 construct: monitors cellular caspase-6 cleavage of endogenous lamin A/C under apoptotic conditions; endogenous in cells; host or cells: SKNAS (ATCC #CRL-2137)
# T3 sequence (P55212 24-179 limits assumed): T2 sequence (P55212 24-179 limits assumed)
# T3 sequence (P55212 194-293 limits assumed): T2 sequence (P55212 194-293 limits assumed)
# Description: The following day, cell culture medium was aspirated and replaced with 20 µl/well basal medium (DMEM with no supplements added). […] 5 µl of diluted inhibitor was delivered to each well and incubated for 30 minutes in a cell culture incubator prior to addition of 5 µl/well staurosporine in basal medium. The final DMSO concentration in the assay was 0.1% and the final staurosporine concentration was 3 µM (or indicated concentration). […] Cells were permeabilized by the addition of 50 µl 0.2% Triton X-100 in PBS for 15 minutes at room temperature. […] The following day, primary antibody was aspirated and the wells washed 3 times with 100 µl TBST. Secondary antibody (donkey anti-rabbit IgG, HRP-conjugated (GE Healthcare #NA934V)) was delivered at 1∶2500 dilution in blocking agent (20 µl/well) and incubated 1 hour at room temperature.
# In order to develop an assay more amenable to inhibitor screening, this antibody detection was adapted to a plate-based non-denaturing assay. SKNAS cells cultured in 384-well plates were treated with 3 µM staurosporine for six hours prior to fixation with 4% paraformaldehyde and permeabilization with 0.2% Triton X-100. Binding of the two antibodies that recognize neo-epitopes on the large or small lamin degradation products was detected by horseradish-peroxidase-labeled secondary antibody and subsequent chemiluminescent substrate addition (see methods for details).
# [5] = biological target: T4, Caspase-3 (Homo sapiens, UniProt P42574); experiment: Enzymatic caspase activity assay, (Ac-DEVD)2-Rh110 substrate; type: biochemical; conditions: apparent IC50; 15 minute preincubation and 40 minute reaction; 300 pM caspase-3, 1 µM (Ac-DEVD)2-Rh110
# T4 construct: made in house; host or cells: E. coli
# T4 sequence (P42574 29-175 limits assumed): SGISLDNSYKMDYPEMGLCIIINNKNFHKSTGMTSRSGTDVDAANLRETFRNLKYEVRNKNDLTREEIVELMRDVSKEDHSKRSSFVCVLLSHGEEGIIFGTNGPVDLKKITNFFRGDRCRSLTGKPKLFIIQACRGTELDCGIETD
# T4 sequence (P42574 176-277 limits assumed): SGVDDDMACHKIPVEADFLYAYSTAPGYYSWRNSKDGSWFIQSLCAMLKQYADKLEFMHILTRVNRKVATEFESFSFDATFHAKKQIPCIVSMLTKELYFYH
# Description: as §1
# [6] = system: SKNAS cells; experiment: Mass spectrometry analysis of intracellular inhibitor accumulation; conditions: 10 µM inhibitor, 1 hour at 37°C, LC/MS/MS
# Description: SKNAS cells were seeded in 12-well plates at a concentration of 5×10^6 cells/mL and allowed to adhere overnight prior to the experiment. Caspase inhibitors (10 µM) in Hank's balance Salt Solution (HBSS; Invitrogen) buffer containing 10 mM HEPES (Invitrogen) and a final DMSO concentration of 0.1% were added in triplicate to the cells. Non specific binding (NSB) samples were prepared by immediately aspirating the dose solution and washing the cells with 1 mL of ice cold HBSS. Cells for the accumulation experiment were incubated for 1 hour at 37°C with inhibitors prior to washing with 1 mL ice cold HBSS. Analytical internal standard (200 nM propranolol (Sigma) in 100% acetonitrile (ACN) with 0.1% formic acid) and blank HBSS buffer were sequentially added to the 12-well plates containing the NSB and accumulation samples. Reference samples for each inhibitor were made by adding internal standard to dose solution and cells incubated for 1 hour at 37°C. The cells from all experiments were scraped from the bottom of the 12 well plates, sonicated for approximately 30 minutes, and centrifuged for 10 minutes at 3000 x g prior to LC/MS/MS analysis.
# The LC/MS/MS system consisted of an AB Sciex API4000 mass spectrometer (AB Sciex, Foster City, CA), an Aria LX2 multiplexing LC system (Thermo Fisher Scientific, Waltham, MA) and a CTC Analytics autosampler (Leap Technologies, Carrboro, NC). An ESI Spray source in the positive ion mode and multiple reaction monitoring (MRM) were used to quantitate peak areas. The LC separations were performed on a 50×2.0 mm Gemini C18 analytical column (Phenomenex, Torrance, CA). The mobile phases consisted of water with 0.1% formic acid (mobile phase A) and ACN with 0.1% formic acid (mobile phase B). Mass spectrometer data were processed using Analyst software version 1.4.2.
# [7] = system: SKNAS cells; experiment: LDH release assay; type: cell-based, human
# Description: SKNAS cells were plated at a density of 20,000 cells per well into 384-well black clear-bottom cell culture plates in 20 µl/well growth medium and allowed to adhere overnight. The following day, 5 µl staurosporine diluted in growth medium was delivered to each well and incubated for the indicated time in a cell culture incubator. The final DMSO concentration in the assay was 0.1%. At each timepoint, lactate dehydrogenase (LDH) activity was measured in cell supernatants using a colorimetric LDH activity measurement kit (BioVision; Mountain View, CA) according to manufacturer's recommendation by measuring absorbance at 450 nm using a Spectramax platereader (Molecular Devices; Sunnyvale, CA).
# [8] = read-out: Enzymatic Caspase-6 IC50
# [9] = read-out: Mean IC50 Caspase-6, apparent IC50, 1 nM caspase-6, 5 µM (Ac-VEID)2-Rh110
Molecule,"IC50 [2, 8] [µM]",IC50 ([4]; SKNAS cells) [µM],IC50 [1] [µM],"IC50 [2, 9] [µM]",IC50 [5] [µM],further results
CC(=O)N[C@@H](CC(=O)O)C(=O)N[C@@H](CCC(=O)O)C(=O)N[C@H](C(=O)N[C@H](C=O)CC(=O)O)C(C)C [Ac-DEVD-CHO],0.031,> 100,0.0037,0.0305,,IC50 [3]: 1.49 µM; activity in the cellular lamin degradation assay ([4]; SKNAS cells): inactive in lamin degradation assay
CC[C@H](C)[C@H](NC(C)=O)C(=O)N[C@@H](CCC(=O)O)C(=O)N[C@H](C(=O)N[C@H](C=O)CC(=O)O)[C@@H](C)O [Ac-IETD-CHO] (Ac-IETD-aldehyde),,,0.553,0.0532,0.0758,
CC[C@H](C)[C@H](NC(=O)[C@H](CCC(=O)O)NC(=O)[C@@H](NC(C)=O)C(C)C)C(=O)N[C@H](C=O)CC(=O)O [Ac-VEID-CHO] (Ac-VEID-aldehyde),,,0.162,,0.0136,IC50 [3]: 0.49 µM; activity in the cellular lamin degradation assay ([4]; SKNAS cells): lacks any activity in the cellular assay
CN[C@@H]1C[C@H]2O[C@@](C)([C@@H]1OC)n1c3ccccc3c3c4c(c5c6ccccc6n2c5c31)C(=O)NC4 [staurosporine],,,,,,"treatment time required for the same degree of LDH release ([7]; 30 µM staurosporine): 4 h; staurosporine concentration at which LDH release is detected above background levels ([7]; after 6 hours of treatment): ~4 µM; signal:background ratio of lamin A/C degradation ([4]; SKNAS cells, 3 µM staurosporine, six-hour treatment, no inhibitor): 8.8 fold"
COC(=O)CC[C@H](NC(=O)[C@H](CC(=O)OC)NC(=O)OCc1ccccc1)C(=O)N[C@H](C(=O)N[C@@H](CC(=O)OC)C(=O)CF)C(C)C [z-DEVD-FMK],0.402,> 100,0.0985,0.402,,
z-ID-TFPM,0.019,0.18,,,,% cell accumulation [6]: 1.97%; fold lower potency in cellular lamin assay than in enzymatic assay [4]: ~10 fold

# Continued, in another order:
"IC50 [2, 8] [µM]",IC50 ([4]; SKNAS cells) [µM],Molecule,IC50 [1] [µM],"IC50 [2, 9] [µM]",IC50 [5] [µM],further results
0.156,0.94,CC(C)[C@H](NC(=O)c1ccc2ccccc2n1)C(=O)N[C@@H](CC(=O)O)C(=O)COc1c(F)cccc1F [Q-VD-OPh],,,,% cell accumulation [6]: 1.72%; fold lower potency in cellular lamin assay than in enzymatic assay [4]: 6 fold
2.11,44,COC(=O)C[C@H](NC(=O)[C@H](C)NC(=O)[C@@H](NC(=O)OCc1ccccc1)C(C)C)C(=O)CF [z-VAD-FMK] (Cbz-Val-Ala-Asp(OMe)-CH2F),0.0747,2.11,0.168,
0.129,,CC[C@H](C)[C@H](NC(=O)[C@H](CCC(=O)OC)NC(=O)[C@@H](NC(=O)OCc1ccccc1)C(C)C)C(=O)N[C@@H](CC(=O)OC)C(=O)CF [z-VEID-FMK] (Cbz-VE(OMe)ID(OMe)-CH2F),0.648,0.129,0.0451,
0.0084,21,z-EID-TFPM,,,,
< 0.0017,12,z-VEID-tetrafluorophenoxymethyl [z-VEID-TFPM],,,,% cell accumulation [6]: 0.17%
